Each molecule was assayed on P. falciparum 3D7 growth, pLDH absorbance (assay: P. falciparum 3D7 growth inhibition, dose response, strain 3D7 (AID 2305)).

Q: `CC(Cc1ccc(OCCN2CCN(c3ccc(Cl)cc3)CC2)cc1)NCC(O)c1cccc(C(F)(F)F)c1` (stereo not given) was tested. Which IC50 did it give?
A: Its IC50 is 810 nM.

Q: How did the IC50 turn out when `Cc1cccc2[nH]c(-c3ccc(-c4ccc(CN5CCCC5CN)cc4)cc3)nc12` (stereo not given) was run?
A: The IC50 was 810 nM.

Q: For `O=C(Nc1cccc(CN2CCCN(Cc3ccccc3)CC2)c1)c1cc2ccccc2s1`, which IC50 is on record?
A: Its IC50 is 1200 nM.

Q: How did the IC50 turn out when `CS(=O)(=O)CCNc1nccc(N2CCc3ncnc(Nc4ccc(OCc5cccc(F)c5)c(Cl)c4)c3C2)n1` was run?
A: Its IC50 is 130 nM.

Q: How did the IC50 turn out when `CCCCCCCN1CCC(CC(=O)Nc2ccnc3ccc(OC)cc23)CC1` was run?
A: The IC50 was 720 nM.

Q: Which IC50 does the source give for `CN(CCON1C(N)=NC(N)=NC1(C)C)c1ccccc1` here?
A: The IC50 was 20 nM.

Q: `O=C(Cc1cccs1)NC(CCCN1CCC(Oc2cccc(Cl)c2)CC1)c1ccc(Cl)c(Cl)c1` (stereo not given) was tested. Which IC50 did it give?
A: Its IC50 is 250 nM.

Q: For `COc1ccc(-c2nc(NC(=O)CSc3ccccc3)sc2C)cc1`, which IC50 is on record?
A: Its IC50 is 760 nM.

Q: `Cc1ccc2[nH]c3c(NCCN(C)C)ncnc3c2c1` was tested. Which IC50 did it give?
A: Its IC50 is 840 nM.

Q: `N#Cc1cccc(C(=O)Nc2cccc(-c3ccc(C(=O)NCCCN4CCOCC4)cc3)c2)c1` was tested. Which IC50 did it give?
A: The IC50 was 750 nM.

Q: `CCCc1cc2c3c(N)nc(N)nc3ccc2n1CC` was tested. Which IC50 did it give?
A: The IC50 was 50 nM.

Q: How did the IC50 turn out when `CC(C)Oc1ccc(C=CC(=O)Nc2noc3ccccc23)cc1` was run?
A: The IC50 was 290 nM.

Q: Which IC50 does the source give for `CC(C)NCC(O)Cn1c2ccc(Br)cc2c2cc(Br)ccc21` (stereo not given) here?
A: Its IC50 is 450 nM.

Q: For `NOCCCCOc1ccc(Cl)cc1`, which IC50 is on record?
A: The IC50 was 780 nM.

Q: With `O=C(NCCCCN1CCN(c2cccc3c2OCCO3)CC1)c1ccc(NC(=O)c2cc(Cl)cc(Cl)c2)cc1` as the molecule, how does the IC50 read?
A: The IC50 was 220 nM.

Q: For `Cc1cccc2[nH]c(-c3cccc(-c4ccc(NC(=O)NCc5cccc(F)c5)cc4)c3)nc12`, which IC50 is on record?
A: Its IC50 is 240 nM.

Q: How did the IC50 turn out when `CC(CCCCC(=O)Nc1ccc(CC(C)NCCc2cccc(Cl)c2)cc1)NCCc1cccc(Cl)c1` (stereo not given) was run?
A: Its IC50 is 1010 nM.

Q: `O=S(=O)(NCCCN1CCOCC1)c1ccc2nccc(Nc3ccc(Oc4ccccc4)cc3)c2c1` was tested. Which IC50 did it give?
A: Its IC50 is 850 nM.

Q: With `c1cc(CNCCc2ccncc2)cc(-c2ccc(-c3nc4ccccc4[nH]3)cc2)c1` as the molecule, how does the IC50 read?
A: Its IC50 is 150 nM.

Q: Which IC50 does the source give for `Cc1cc(-c2c[nH]c3ncc(-c4cccc5ncccc45)cc23)ccc1C(=O)O` here?
A: The IC50 was 760 nM.

Q: `Fc1ccc2nc(-c3cccc(-c4cccc(CNCCN5CCNCC5)c4)c3)[nH]c2c1` was tested. Which IC50 did it give?
A: The IC50 was 840 nM.

Q: With `O=C(/C=C/c1cccs1)NC1CCC(CN2CCC(c3c[nH]c4ccccc34)CC2)CC1` (stereo not given) as the molecule, how does the IC50 read?
A: Its IC50 is 1050 nM.

Q: For `CCOc1cc2ncnc(Nc3ccc(OCc4c(Cl)cccc4Cl)c(OC)c3)c2cc1OCC`, which IC50 is on record?
A: The IC50 was 1050 nM.

Q: With `Cc1ccc(Cn2cnc3cc(C(=O)Nc4ccc(-c5ccc(CN(C)C)cc5)cc4)ccc3c2=O)o1` as the molecule, how does the IC50 read?
A: The IC50 was 1260 nM.

Q: With `CCCCN(CCCC)C(=Nc1cccc(Cl)c1Cl)Nc1ccc(C#N)cc1O` as the molecule, how does the IC50 read?
A: The IC50 was 850 nM.

Q: How did the IC50 turn out when `CCOc1ccc(C(=O)Nc2cc(Br)c3c(c2)CNCC3)cc1Br` was run?
A: The IC50 was 990 nM.

Q: For `CC(=O)c1ccc(-c2ccc(C(=O)NCCCCN3CCC(c4ccc5c(c4O)CCCC5)CC3)cc2)cc1`, which IC50 is on record?
A: The IC50 was 760 nM.

Q: With `CC1(C)CN(CCC2CCC(NC(=O)/C=C/c3ccc(F)cc3F)CC2)Cc2ccc(C#N)cc21` (stereo not given) as the molecule, how does the IC50 read?
A: The IC50 was 790 nM.

Q: Which IC50 does the source give for `Cc1ccc([N+](=O)[O-])cc1NC(=O)N(CC(O)c1ccccc1)C1CCCCC1` (stereo not given) here?
A: The IC50 was 730 nM.

Q: With `Cc1ccc2[nH]c3c(NCCCN4CCOCC4)ncnc3c2c1` as the molecule, how does the IC50 read?
A: Its IC50 is 940 nM.

Q: `CN(c1ccc2c(c1)nc(NCc1ccc(F)cc1)n2C)c1ccnc(Nc2ccc(CS(C)(=O)=O)cc2)n1` was tested. Which IC50 did it give?
A: Its IC50 is 830 nM.

Q: For `O=c1ccc2ncc(Cl)c3c2n1CC3CN1CCC(NCc2cc3c(cn2)OCCO3)CC1` (stereo not given), which IC50 is on record?
A: Its IC50 is 960 nM.

Q: Which IC50 does the source give for `CC(C)(C)c1ccc(O)c(CNC2CCCCC2)c1` here?
A: The IC50 was 260 nM.

Q: For `CSc1ccc2nccc(Nc3ccc(Oc4ccccc4)cc3)c2c1`, which IC50 is on record?
A: The IC50 was 870 nM.

Q: For `CCc1cccc(C)c1-n1nc(-c2cc(C(C)(C)C)oc2C)cc1N`, which IC50 is on record?
A: Its IC50 is 660 nM.

Q: For `CCN(CC)CC(O)Cc1c2ccc([N+](=O)[O-])cc2nc2cc(OC)c(OC)cc12` (stereo not given), which IC50 is on record?
A: Its IC50 is 740 nM.

Q: For `COc1cccc(C=NNc2cc(C)nc3c(OC)cccc23)c1`, which IC50 is on record?
A: The IC50 was 580 nM.

Q: For `COc1ccc2c(NN=Cc3ccncc3)cc(C)nc2c1`, which IC50 is on record?
A: The IC50 was 810 nM.

Q: Which IC50 does the source give for `CN(C)c1ccc(-c2cscc2C(=O)NC2CCCN(Cc3cccnc3)C2)cc1` (stereo not given) here?
A: The IC50 was 860 nM.

Q: How did the IC50 turn out when `Cc1cc(N2CCN(CC3CCCCC3)CC2)nc(Nc2ccc(Br)cc2)n1` was run?
A: The IC50 was 1090 nM.

Q: With `C=CCn1c(=N)n(CC(O)c2ccc(Cl)c(Cl)c2)c2ccccc21` (stereo not given) as the molecule, how does the IC50 read?
A: The IC50 was 340 nM.

Q: `O=C(C=Cc1cn(-c2ccccc2)nc1-c1cccs1)N1CCN(c2ccncc2)CC1` was tested. Which IC50 did it give?
A: Its IC50 is 720 nM.

Q: With `FC(F)(F)c1ccc2nc(-c3ccc(-c4cccc(CN5CCCCC5)c4)cc3)[nH]c2c1` as the molecule, how does the IC50 read?
A: Its IC50 is 140 nM.

Q: For `Cc1ccc2nc3sc(C(=O)NCCCN4CCC(N5CCCCC5)CC4)cc3cc2c1`, which IC50 is on record?
A: Its IC50 is 670 nM.

Q: With `COc1cc(NC(=O)c2sc(-c3ccc(Cl)cc3)cc2NC(=O)CN2CC[C@@H](O)C2)ccc1OCCN1CCCC1` as the molecule, how does the IC50 read?
A: The IC50 was 800 nM.

Q: For `Nc1nc2c(cnn2CCCCCCCP(=O)(O)O)c(=O)[nH]1`, which IC50 is on record?
A: The IC50 was 470 nM.

Q: How did the IC50 turn out when `O=C(N[C@@H](Cc1ccccc1)C(=O)NC1CCCCCC1)c1ccc(O)c(-c2cccc(C(F)(F)F)c2)c1` was run?
A: Its IC50 is 730 nM.

Q: With `Cc1ccc(-c2ccc3c(c2)C=C(C(=O)NC2CCN(CCNC(=O)c4cccs4)CC2)CCC3)cc1` as the molecule, how does the IC50 read?
A: The IC50 was 230 nM.

Q: Which IC50 does the source give for `CCCCN(CCCC)CCNC(=O)c1cccc(NC(=O)N2CCc3cc(SC)c(C(F)(F)F)cc32)c1` here?
A: Its IC50 is 810 nM.

Q: Which IC50 does the source give for `CCOc1ccc(NC(=O)c2ccc(NCCCN3CC(C)CC(C)C3)c([N+](=O)[O-])c2)cc1` (stereo not given) here?
A: Its IC50 is 710 nM.

From PubChem BioAssay AID2305 (GlaxoSmithKline (GSK), 2010)
